PMC7806260, “A gustatory receptor tuned to the steroid plant hormone brassinolide in Plutella xylostella (Lepidoptera: Plutellidae)” (eLife, 2020)

Molecular target: T1, PxylGr34 (Plutella xylostella, UniProt A0ABQ7Q355)
T1 construct: gene JYU34_016516; no tag or co-receptor stated
T1 sequence (A0ABQ7Q355 1-418): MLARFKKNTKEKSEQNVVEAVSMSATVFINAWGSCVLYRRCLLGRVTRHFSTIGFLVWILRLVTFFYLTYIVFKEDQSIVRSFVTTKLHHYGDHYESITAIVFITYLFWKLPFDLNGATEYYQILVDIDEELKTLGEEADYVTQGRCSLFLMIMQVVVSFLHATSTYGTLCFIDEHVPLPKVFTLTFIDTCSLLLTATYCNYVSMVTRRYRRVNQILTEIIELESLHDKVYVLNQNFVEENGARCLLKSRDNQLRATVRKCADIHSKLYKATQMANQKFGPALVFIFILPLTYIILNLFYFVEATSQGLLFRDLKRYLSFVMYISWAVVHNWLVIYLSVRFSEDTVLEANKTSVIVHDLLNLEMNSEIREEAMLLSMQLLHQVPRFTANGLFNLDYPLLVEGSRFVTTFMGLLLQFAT
Experiment: two-electrode voltage clamp, Xenopus oocytes
Type: cell-based
Conditions: inward current, agonist at 10^-4 M, pH 7.5, holding potential -80 mV

`C=CCN=C=S` [Allyl isothiocyanate] was tested, and the “two-electrode voltage clamp, Xenopus oocytes” value (from here on “two-electrode voltage clamp”) was “Oocytes expressing PxylGr34 showed weak responses to methyl jasmonate and allyl isothiocyanate”.

For `CC(C)[C@H](C)[C@@H](O)[C@H](O)[C@@H](C)[C@H]1CC[C@H]2[C@@H]3COC(=O)[C@H]4C[C@H](O)[C@H](O)C[C@]4(C)[C@H]3CC[C@]12C` [Brassinolide], the “two-electrode voltage clamp” value (dose series recorded) was “BL induced a strong response in the oocytes expressing PxylGr34”.

`CC/C=C\C[C@H]1C(=O)CC[C@@H]1CC(=O)OC` [Methyl jasmonate] was tested, and the “two-electrode voltage clamp” value was “Oocytes expressing PxylGr34 showed weak responses to methyl jasmonate and allyl isothiocyanate”.
